Experimental data: patent US4667027A, “Cephem compounds and their production” (Takeda Chemical Industries, Ltd., priority 1984, dated 1987)
In brackets after ≈: the same amount, converted by molar mass.

Experiments:
[1] = Solubility in solvents; type: physicochemical; conditions: hydrochloride
[2] = system: Proteus vulgalis IFO 3988; test: Antimicrobial spectrum, minimal inhibitory concentration (agar dilution); type: cell-based; conditions: hydrochloride, inoculum 1 loopful of about 10^6/ml
Description: (§1) *Culture medium: 17.5 g of Bacto antibiotic medium 3 (Difco), 5 g of Bact
(§2) yeast extract (Difco), 20 g of Bacto agar (Difco), 1 l of distilled water
(§3) The amount of inoculated microorganism: 1 loopful of about 10^6 /ml o
(§4) microorganism suspension.
(§5) *Medium: Bacto antibiotic medium (Difco) 17.5 g, Bacto yeast extract
(§6) (Difco) 5 g, Bacto agar (Difco) 20 g, distilled water 1 l, pH not

[3] = system: Bacillus subtilis NIHJ PCI 219; test: as above; type: cell-based; conditions: hydrochloride, inoculum 1 loopful of about 10^6/ml
Description: as §1, §2, §3, §4, §5, §6

[4] = system: Acinetobacter calcoaceticus IFO 12552; test: as above; type: cell-based; conditions: IFO12552, hydrochloride, inoculum 1 loopful of about 10^6/ml
Description: as §1, §2, §3, §4, §5, §6

[5] = system: Staphylococcus aureus FDA 209P; test: as above; type: cell-based; conditions: FDA209P, hydrochloride, inoculum 1 loopful of about 10^6/ml
Description: as §1, §2, §3, §4, §5, §6

[6] = system: Pseudomonas aeruginosa IFO 3080; test: as above; type: cell-based; conditions: IFO3080, hydrochloride, inoculum 1 loopful of about 10^6/ml
Description: as §1, §2, §3, §4, §5, §6

[7] = system: Citrobacter freundii IFO 12681; test: as above; type: cell-based; conditions: IFO12681, hydrochloride, inoculum 1 loopful of about 10^6/ml
Description: as §1, §2, §3, §4, §5, §6

[8] = system: Bacillus megaterium IFO 12108; test: as above; type: cell-based; conditions: Priestia megaterium, IFO12108, hydrochloride, inoculum 1 loopful of about 10^6/ml
Description: as §1, §2, §3, §4, §5, §6

[9] = system: Klebsiella pneumoniae IFO 3317; test: as above; type: cell-based; conditions: IFO3317, hydrochloride, inoculum 1 loopful of about 10^6/ml
Description: as §1, §2, §3, §4, §5, §6

[10] = system: Escherichia coli NIHJ JC-2; test: as above; type: cell-based; conditions: NIHJJC2, hydrochloride, inoculum 1 loopful of about 10^6/ml
Description: as §1, §2, §3, §4, §5, §6

[11] = system: Alcaligenes faecalis IFO 13111; test: as above; type: cell-based; conditions: IFO13111, hydrochloride, inoculum 1 loopful of about 10^6/ml
Description: as §1, §2, §3, §4, §5, §6

[12] = system: Brevibacterium thiogenitalis ATCC 19240; test: as above; type: cell-based; conditions: Corynebacterium glutamicum, ATCC19240, hydrochloride, inoculum 1 loopful of about 10^6/ml
Description: as §1, §2, §3, §4, §5, §6

[13] = system: Salmonella typhimurium IFO 12529; test: as above; type: cell-based; conditions: Salmonella enterica, hydrochloride, inoculum 1 loopful of about 10^6/ml
Description: as §1, §2, §3, §4, §5, §6

[14] = system: Serratia marcescens IFO 12648; test: as above; type: cell-based; conditions: IFO12648, hydrochloride, inoculum 1 loopful of about 10^6/ml
Description: as §1, §2, §3, §4, §5, §6

[15] = system: penicillinase; test: β-lactamase stability test, growth inhibition zone with penicillinase; type: cell-based; conditions: penicillinase added; test organism Escherichia coli PG8; drug 100 μg/ml; nutrient agar pH 7.0
Description: (§7) TAN-591A, B, C are stable to various β-lactamases. The results of stability test of the antibiotic to two β-lactamases employing Escherichia coli PG8 as a test organism are shown in Table 5. […]

[16] = system: Escherichia coli PG8; test: β-lactamase stability test, growth inhibition zone, no β-lactamase added; type: cell-based; conditions: β-lactamase not added; test organism Escherichia coli PG8; drug 100 μg/ml; nutrient agar pH 7.0; read-out: diameter of growth inhibition zone
Description: as §7

[17] = Toxicity after subcutaneous administration to mice; type: in vivo; conditions: dose of 1 g/kg, hydrochloride
Protocol: When Antibiotic TAN-592B hydrochloride was administered subcutaneously in a dose of 1 g/kg to mice, no death was observed, and therefore Antibiotic TAN-592 is considered to be low in toxicity.
When Antibiotic TAN-591A hydrochloride was administered subcutaneously a dose of 1 g/kg to mice, no death was observed, and therefore Antibiotic TAN-591 is considered to be low in toxicity.

[18] = system: Escherichia coli 0-111; test: Therapeutic effect to infectious disease in mice; type: in vivo; conditions: Escherichia coli, 0111, sc
Description: The therapeutic effect of TAN-592B.hydrochloride to infectious disease in mice is shown below.
*Intraperitoneal infection
The therapeutic effect of TAN-591A.hydrochloride to infectious disease in mice is shown below.

[19] = system: cephalosporinase; test: β-lactamase stability test, growth inhibition zone with cephalosporinase; type: cell-based; conditions: cephalosporinase added; test organism Escherichia coli PG8; drug 100 μg/ml; nutrient agar pH 7.0
Description: as §7

[20] = dimethylsulfoxide, methanol, acetone, ethyl acetate
[21] = water, aqueous acetone, aqueous alcohol

Compound | Solubility [1, 20] | Solubility [1, 21] | MIC [2] [µg/mL] | MIC [3] [µg/mL] | MIC [4] [µg/mL] | MIC [5] [µg/mL] | MIC [6] [µg/mL] | MIC [7] [µg/mL] | MIC [8] [µg/mL] | MIC [9] [µg/mL] | MIC [10] [µg/mL] | MIC [11] [µg/mL] | MIC [12] [µg/mL] | MIC [13] [µg/mL] | MIC [14] [µg/mL] | diameter of growth inhibition zone [15] [mm] | zone of inhibition at 100 µg/mL [16] [mm] | death [17] | ED50 [18] [mg/kg] | diameter of growth inhibition zone [19] [mm]
N=C(N)NCCCC(NC(=O)C(CO)NC(=O)C(N)CO)C(O)CC(=O)OCC1=C(C(=O)O)N2C(=O)C(NC(=O)CCCC(N)C(=O)O)C2SC1 (stereo not shown) [TAN-592E] | Sparingly soluble | Easily soluble | 50 (≈ 66.9 µM) | 1.56 (≈ 2.09 µM) | > 50 | > 50 | > 50 | > 50 | 1.56 (≈ 2.09 µM) | > 50 | > 50 | 25 (≈ 33.4 µM) | 3.13 (≈ 4.19 µM) | 50 (≈ 66.9 µM) | > 50 |  |  |  |  | 
CO[C@@]1(NC(=O)CCC[C@@H](N)C(=O)O)C(=O)N2C(C(=O)O)=C(COC(N)=O)CS[C@@H]21 [CMC, cephamycin C, reference compound] |  |  |  |  |  |  |  |  |  |  |  |  |  |  |  | 34 | 34 |  |  | 
NCCCCC(NC(=O)C(N)CO)C(O)CC(=O)OCC1=C(C(=O)O)N2C(=O)C(NC=O)(NC(=O)CCCC(N)C(=O)O)C2SC1 (stereo not shown) [TAN-591A] | Sparingly soluble | Easily soluble | 25 (≈ 37 µM) | 12.5 (≈ 18.5 µM) | 1.56 (≈ 2.31 µM) | > 100 | 100 (≈ 148 µM) | 50 (≈ 74 µM) | 12.5 (≈ 18.5 µM) | 50 (≈ 74 µM) | 25 (≈ 37 µM) | 6.25 (≈ 9.25 µM) | 6.25 (≈ 9.25 µM) | 25 (≈ 37 µM) | 25 (≈ 37 µM) | 22 | 22.5 | no death | 16.2 | 22
CC1(C)S[C@@H]2[C@H](NC(=O)Cc3ccccc3)C(=O)N2[C@H]1C(=O)O [PCG, benzylpenicillin, reference compound] |  |  |  |  |  |  |  |  |  |  |  |  |  |  |  |  | 22 |  |  | 
CC(N)C(=O)NC(CO)C(=O)NC(CO)C(=O)NC(CCCCN)C(O)CC(=O)OCC1=C(C(=O)O)N2C(=O)C(NC=O)(NC(=O)CCCC(N)C(=O)O)C2SC1 (stereo not shown) [TAN-591C] | Sparingly soluble | Easily soluble | 50 (≈ 60 µM) | 25 (≈ 30 µM) | 3.13 (≈ 3.75 µM) | > 100 | > 100 | 100 (≈ 120 µM) | 25 (≈ 30 µM) | 50 (≈ 60 µM) | 50 (≈ 60 µM) | 50 (≈ 60 µM) | 12.5 (≈ 15 µM) | 50 (≈ 60 µM) | 50 (≈ 60 µM) | 22 | 22 |  |  | 22
CC(N)C(=O)NC(CO)C(=O)NC(CO)C(=O)NC(CCCNC(=N)N)C(O)CC(=O)OCC1=C(C(=O)O)N2C(=O)C(NC(=O)CCCC(N)C(=O)O)C2SC1 (stereo not shown) [TAN-592F] | Sparingly soluble | Easily soluble | 50 (≈ 61.1 µM) | 1.56 (≈ 1.91 µM) | > 50 | 50 (≈ 61.1 µM) | > 50 | > 50 | 1.56 (≈ 1.91 µM) | > 50 | > 50 | 12.5 (≈ 15.3 µM) | 3.13 (≈ 3.82 µM) | > 50 | > 50 |  |  |  |  | 
N=C(N)NCCCC(NC(=O)C(CO)NC(=O)C(N)CO)C(O)CC(=O)OCC1=C(C(=O)O)N2C(=O)C(NC=O)(NC(=O)CCCC(N)C(=O)O)C2SC1 (stereo not shown) [TAN-592B] | Sparingly soluble | Easily soluble | 12.5 (≈ 15.8 µM) | 12.5 (≈ 15.8 µM) | 1.56 (≈ 1.97 µM) | > 50 | > 50 | 25 (≈ 31.6 µM) | 12.5 (≈ 15.8 µM) | 50 (≈ 63.2 µM) | 25 (≈ 31.6 µM) | 6.25 (≈ 7.9 µM) | 6.25 (≈ 7.9 µM) | 25 (≈ 31.6 µM) | 25 (≈ 31.6 µM) | 29 | 29 | no death | 16.2 | 29
CC(N)C(=O)NC(CO)C(=O)NC(CO)C(=O)NC(CCCNC(=N)N)C(O)CC(=O)OCC1=C(C(=O)O)N2C(=O)C(NC=O)(NC(=O)CCCC(N)C(=O)O)C2SC1 (stereo not shown) [TAN-592C] | Sparingly soluble | Easily soluble | 25 (≈ 29 µM) | 12.5 (≈ 14.5 µM) | 3.13 (≈ 3.63 µM) | > 50 | > 50 | > 50 | 12.5 (≈ 14.5 µM) | 50 (≈ 58 µM) | 25 (≈ 29 µM) | 6.25 (≈ 7.25 µM) | 6.25 (≈ 7.25 µM) | 25 (≈ 29 µM) | 50 (≈ 58 µM) | 29 | 29 |  |  | 29
N=C(N)NCCCC(NC(=O)C(N)CO)C(O)CC(=O)OCC1=C(C(=O)O)N2C(=O)C(NC=O)(NC(=O)CCCC(N)C(=O)O)C2SC1 (stereo not shown) [TAN-592A] | Sparingly soluble | Easily soluble | 12.5 (≈ 17.8 µM) | 12.5 (≈ 17.8 µM) | 1.56 (≈ 2.22 µM) | > 50 | 50 (≈ 71 µM) | 50 (≈ 71 µM) | 12.5 (≈ 17.8 µM) | 50 (≈ 71 µM) | 12.5 (≈ 17.8 µM) | 3.13 (≈ 4.45 µM) | 3.13 (≈ 4.45 µM) | 50 (≈ 71 µM) | 50 (≈ 71 µM) | 28 | 28 |  |  | 28
N=C(N)NCCCC(NC(=O)C(N)CO)C(O)CC(=O)OCC1=C(C(=O)O)N2C(=O)C(NC(=O)CCCC(N)C(=O)O)C2SC1 (stereo not shown) [TAN-592D] | Sparingly soluble | Easily soluble | 50 (≈ 75.7 µM) | 1.56 (≈ 2.36 µM) | > 50 | > 50 | > 50 | > 50 | 1.56 (≈ 2.36 µM) | > 50 | > 50 | 25 (≈ 37.8 µM) | 3.13 (≈ 4.74 µM) | 50 (≈ 75.7 µM) | > 50 |  |  |  |  | 
NCCCCC(NC(=O)C(CO)NC(=O)C(N)CO)C(O)CC(=O)OCC1=C(C(=O)O)N2C(=O)C(NC=O)(NC(=O)CCCC(N)C(=O)O)C2SC1 (stereo not shown) [TAN-591B] | Sparingly soluble | Easily soluble | 25 (≈ 32.8 µM) | 25 (≈ 32.8 µM) | 3.13 (≈ 4.1 µM) | > 100 | > 100 | 50 (≈ 65.5 µM) | 12.5 (≈ 16.4 µM) | 50 (≈ 65.5 µM) | 25 (≈ 32.8 µM) | 12.5 (≈ 16.4 µM) | 6.25 (≈ 8.19 µM) | 25 (≈ 32.8 µM) | 50 (≈ 65.5 µM) | 23 | 23 |  |  | 23
